Source: PubChem BioAssay (NCI)
Where “and” joins values, the source holds several entries; their conditions need not be identical. Identical values can stand only once.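 Each compound was tested at five concentrations against cells in 96-well plates for 48 hours. The concentration for 50% growth inhibition is given as GI50. At the TGI there is no net growth.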

Experiments:
Experiment in all cases: NCI tumour cell line growth inhibition, 48 h
OVCAR-8 ovarian = system: OVCAR-8 ovarian
SN12C renal = system: SN12C renal
OVCAR-5 ovarian = system: OVCAR-5 ovarian
SR leukemia = system: SR leukemia
UO-31 renal = system: UO-31 renal
U251 CNS = system: U251 CNS
SNB-78 CNS = system: SNB-78 CNS
SW-620 colon = system: SW-620 colon
HCT-15 colon = system: HCT-15 colon
HCT-116 colon = system: HCT-116 colon
RPMI-8226 leukemia = system: RPMI-8226 leukemia
HT29 colon = system: HT29 colon
CAKI-1 renal = system: CAKI-1 renal
SF-268 CNS = system: SF-268 CNS
OVCAR-4 ovarian = system: OVCAR-4 ovarian
A498 renal = system: A498 renal
XF 498 CNS = system: XF 498 CNS
LOX IMVI melanoma = system: LOX IMVI melanoma
SF-295 CNS = system: SF-295 CNS
MOLT-4 leukemia = system: MOLT-4 leukemia
COLO 205 colon = system: COLO 205 colon
TK-10 renal = system: TK-10 renal
OVCAR-3 ovarian = system: OVCAR-3 ovarian
RXF 393 renal = system: RXF 393 renal
786-0 renal = system: 786-0 renal
HCC-2998 colon = system: HCC-2998 colon
IGROV1 ovarian = system: IGROV1 ovarian
HOP-62 NSCLC = system: HOP-62 NSCLC
UACC-62 melanoma = system: UACC-62 melanoma
SK-MEL-28 melanoma = system: SK-MEL-28 melanoma
NCI-H23 lung = system: NCI-H23 lung
A549 NSCLC = system: A549 NSCLC
ACHN renal = system: ACHN renal
LXFL 529 NSCLC = system: LXFL 529 NSCLC
SK-MEL-2 melanoma = system: SK-MEL-2 melanoma
DLD-1 colon = system: DLD-1 colon
EKVX NSCLC = system: EKVX NSCLC
KM20L2 colon = system: KM20L2 colon
HOP-18 NSCLC = system: HOP-18 NSCLC
SK-MEL-5 melanoma = system: SK-MEL-5 melanoma
SNB-75 CNS = system: SNB-75 CNS
HL-60(TB) leukemia = system: HL-60(TB) leukemia
M14 melanoma = system: M14 melanoma
UACC-257 melanoma = system: UACC-257 melanoma
HOP-92 NSCLC = system: HOP-92 NSCLC
SK-OV-3 ovarian = system: SK-OV-3 ovarian
MALME-3M melanoma = system: MALME-3M melanoma
M19-MEL melanoma = system: M19-MEL melanoma
SNB-19 CNS = system: SNB-19 CNS
NCI-H226 lung = system: NCI-H226 lung
CCRF-CEM leukemia = system: CCRF-CEM leukemia
NCI-H460 lung = system: NCI-H460 lung
KM12 colon = system: KM12 colon
K-562 leukemia = system: K-562 leukemia
SF-539 CNS = system: SF-539 CNS

## CCCCCCCCCCCCCCCC(=O)N[C@H]1CCc2cc(OC)c(OC)c(OC)c2-c2ccc(SC)c(=O)cc21
OVCAR-8 ovarian
  GI50: 3.31 µM
  TGI: 8.92 µM and 12.6 µM
SN12C renal
  GI50: 2.84 µM
  TGI: 9.08 µM and 10.3 µM
OVCAR-5 ovarian
  GI50: 19.7 µM
  TGI: 41.1 µM and 36.8 µM
SR leukemia
  GI50: 0.597 µM
  TGI: 8.28 µM and 13.2 µM
UO-31 renal
  TGI: 18.4 µM
U251 CNS
  GI50: 2.64 µM
  TGI: 8.6 µM and 9.32 µM
SNB-78 CNS
  GI50: 0.669 µM
  TGI: 80 µM and 25.7 µM
SW-620 colon
  GI50: 2.1 µM
  TGI: 15.6 µM and 10.8 µM
HCT-15 colon
  GI50: 1.54 µM
  TGI: 5.01 µM and 4.04 µM
HCT-116 colon
  GI50: 1.04 µM
  TGI: 3.67 µM and 3.49 µM
RPMI-8226 leukemia
  TGI: 22.7 µM
HT29 colon
  GI50: 1.81 µM
  TGI: 0.853 µM and 4.66 µM
CAKI-1 renal
  GI50: 6.7 µM
  TGI: 80 µM and 21.8 µM
SF-268 CNS
  GI50: 1.63 µM
  TGI: 7.59 µM and 10.9 µM
OVCAR-4 ovarian
  GI50: 8.65 µM
  TGI: 80 µM and > 100 µM
A498 renal
  GI50: 2.27 µM
  TGI: 3.64 µM and 5.35 µM
XF 498 CNS
  GI50: 2.18 µM
  TGI: 8.5 µM and 8.63 µM
LOX IMVI melanoma
  TGI: 11.9 µM
SF-295 CNS
  GI50: 1.12 µM
  TGI: 8.89 µM and 5.44 µM
MOLT-4 leukemia
  GI50: 3.21 µM
  TGI: 19.6 µM and 13.1 µM
COLO 205 colon
  TGI: 0.494 µM and 0.391 µM
TK-10 renal
  GI50: 27.9 µM
  TGI: 35.8 µM and > 100 µM
OVCAR-3 ovarian
  GI50: 0.53 µM
  TGI: 0.642 µM and 3.01 µM
RXF 393 renal
  TGI: 14.8 µM
786-0 renal
  GI50: 3.31 µM
  TGI: 8.24 µM and 12.9 µM
HCC-2998 colon
  GI50: 2.42 µM
  TGI: 1.87 µM and 6.82 µM
IGROV1 ovarian
  TGI: 39 µM and 10.9 µM
HOP-62 NSCLC
  GI50: 2.13 µM
  TGI: 62.6 µM and 18.2 µM
UACC-62 melanoma
  GI50: 1.21 µM
  TGI: 13.4 µM and 11.8 µM
SK-MEL-28 melanoma
  TGI: 24.3 µM and 17.9 µM
NCI-H23 lung
  GI50: 1.25 µM
  TGI: 1.96 µM and 3.85 µM
A549 NSCLC
  GI50: 3.63 µM
  TGI: 13.1 µM and 14.4 µM
ACHN renal
  GI50: 3.88 µM
  TGI: 22.4 µM and 19.7 µM
LXFL 529 NSCLC
  GI50: 1.55 µM
  TGI: 9.54 µM and 4.92 µM
SK-MEL-2 melanoma
  TGI: 4.46 µM
DLD-1 colon
  GI50: 0.709 µM
  TGI: 10.6 µM and 12.4 µM
EKVX NSCLC
  GI50: 4.22 µM
KM20L2 colon
  GI50: 1.59 µM
  TGI: 0.344 µM and 3.4 µM
HOP-18 NSCLC
  TGI: 36.9 µM
SK-MEL-5 melanoma
  GI50: 1.52 µM
  TGI: 5.73 µM and 4.4 µM
SNB-75 CNS
  GI50: 2.96 µM
HL-60(TB) leukemia
  GI50: 2.01 µM
  TGI: 1.35 µM and 6.82 µM
M14 melanoma
  GI50: 0.386 µM
  TGI: 2.86 µM and 1.89 µM
UACC-257 melanoma
  GI50: 0.699 µM
  TGI: 13.1 µM and 26.4 µM
HOP-92 NSCLC
  GI50: 0.564 µM
  TGI: 11.3 µM and 5.32 µM
SK-OV-3 ovarian
  TGI: 6.19 µM
MALME-3M melanoma
  GI50: 0.345 µM
  TGI: 16.3 µM and 1.67 µM
M19-MEL melanoma
  GI50: 3.15 µM
  TGI: 13.6 µM and 13.7 µM
SNB-19 CNS
  GI50: 2.46 µM
  TGI: 9.27 µM and 8.35 µM
NCI-H226 lung
  GI50: 2.63 µM
  TGI: 0.656 µM and 5.65 µM
CCRF-CEM leukemia
  GI50: 2.68 µM
  TGI: 11.4 µM and 15.3 µM
NCI-H460 lung
  GI50: 2.97 µM
  TGI: 2.15 µM and 10.1 µM
KM12 colon
  GI50: 0.845 µM
  TGI: 8.4 µM and 3.73 µM
K-562 leukemia
  GI50: 0.709 µM
  TGI: 11.1 µM and 14.5 µM
SF-539 CNS
  GI50: 1.24 µM
  TGI: 2.08 µM and 3.64 µM
